# Where two headings read alike, the source gives them in different places.
# Columns and labels:
# 6H5L_RA1 = assay: retro-aldol fluorescence assay; format: biochemical, synthetic construct; details: 50 mM sodium phosphate, 150 mM NaCl, 7.5% DMSO, pH 8, 29 °C
# 6H5L_Top = assay: retro-aldol fluorescence assay; format: biochemical, synthetic construct; details: 50 mM sodium phosphate, 150 mM NaCl, 7.5% DMSO, pH 8, 29 °C
# 6H5L [1] = details: 6H5L_K223; 50 mM sodium phosphate, 150 mM NaCl, 7.5% DMSO, pH 8, 29 °C
# 6H5L_RA2 = assay: retro-aldol fluorescence assay; format: biochemical, synthetic construct; details: 50 mM sodium phosphate, 150 mM NaCl, 7.5% DMSO, pH 8, 29 °C
# 6H5L [2] = assay: retro-aldol fluorescence assay; format: biochemical, synthetic construct; details: 50 mM sodium phosphate, 150 mM NaCl, 7.5% DMSO, pH 8, 29 °C
structure (smiles),measurement,setting,value
"COc1ccc2cc(C(O)CC(C)=O)ccc2c1 (racemic) [compound 3, 4-hydroxy-4-(6-methoxy-2-naphthyl)-2-butanone]",Km,6H5L_RA1,1040 ± 128 µM
same,Km,6H5L_Top,453 ± 49.3 µM
same,Km,6H5L [1],967 ± 211 µM
same,Km,6H5L_RA2,1550 ± 225 µM
same,Km,6H5L [2],371 ± 62 µM

# Reference: paper doi:10.1101/2024.10.07.617055v4 (biorxiv, 2026)
